# Measured values taken from US3946040A, “Propynyl benzyl ethers” (Hoffmann-La Roche Inc., priority 1973, dated 1976).
# Tests used:
# Assay type in all cases: in vivo
# [1] = tested on: spider-mites; assay: Spider-mites on sprayed leaf discs, assessment based on the mortality of the spider-mites (W); details: stated logarithmically (3 = 10^^-3 g/cm^3); for LD50 concentration based on insect-poison (W, mortality of the spider-mites): I:P 100:0; for LD50 concentration (W, mortality of the spider-mites; refers to the propynyl benzyl ether itself): I:P 0:100, ether alone
# Protocol: (§1) For each test, three beam leaf discs each with a 2-day infection and with 20-40 spider-mites and eggs are sprayed with a solution of the active ingredient(s) in acetone or an aqueous spray-wash of the active ingredient(s). The dosage for each treated surface is 10^^-5 g/cm^2 = 1 kg/ha. After 2 days, the discs are assessed for dead spider-mites and after 6 days for dead spider-mites and killed eggs. (Assessment scheme: from 0-5, where 0 = 0% and 5 = 100% mortality).
# W = assessment based on the mortality of the spider-mites;
# [2] = tested on: flies; assay: Flies: placed in sprayed petri dishes; dead or crippled flies counted; details: after 24 hours, stated logarithmically (3 = 10^^-3 g/cm^3); for LD50 concentration based on insect-poison: I:P 100:0
# Protocol: For each test, two petri dishes are sprayed with a solution of the active ingredient(s) in acetone or an aqueous spray-wash of the active ingredient(s). The dosage for each treated surface is 10^^-5 g/cm^2 = 1 kg/ha. After 2-3 hours, 10 flies aged 4-5 days are placed in each petri dish. After 1, 3 and 24 hours, the flies which are dead or crippled are counted.
# [3] = tested on: black bean aphids; assay: Aphids: seedling of the field bean with black bean aphids sprayed; dead and surviving aphids counted; details: stated logarithmically (3 = 10^^-3 g/cm^3); for LD50 concentration based on insect-poison: I:P 100:0; for LD50 concentration (refers to the propynyl benzyl ether itself): I:P 0:100, ether alone
# Protocol: For each test, one seedling of the field bean with ca 50-100 black bean aphids is sprayed with a solution of the active ingredient(s) in acetone or an aqueous spray-wash of the active ingredient(s). The seedlings are individually placed in tubes in water. After 24 and 48 hours, the dead and surviving aphids are counted and the activity calculated in %.
# [4] = tested on: spider-mite eggs; assay: Spider-mites on sprayed leaf discs, assessment based on the mortality of the eggs (O); details: stated logarithmically (3 = 10^^-3 g/cm^3), 8640 min; for LD50 concentration (O, mortality of the eggs; refers to the propynyl benzyl ether itself): I:P 0:100, ether alone
# Protocol: as §1
# O = assessment based on the mortality of the eggs.
# [5] = Malathion group, I:P 0:100, ether alone
# [6] = Methoxychlor group, I:P 0:100, ether alone
# [7] = Sevin group, I:P 0:100, ether alone
structure (smiles),measurement,setting,value
"C=CCC1=C(C)C(OC(=O)C2C(C=C(C)C)C2(C)C)CC1=O (mixture of isomers) [Allethrin, 2-allyl-4-hydroxy-3-methyl-2-cyclopenten-1-one esterified with a mixture of cis and trans 2,2-dimethyl-3-(2-methylpropenyl)-cyclopropanecarboxylic acid, reference compound]","LD50 concentration based on insect-poison (W, mortality of the spider-mites)",[1]; Allethrin alone,3.4
same,LD50 concentration based on insect-poison,[2]; Allethrin alone,5.5
same,LD50 concentration based on insect-poison,[3]; Allethrin alone,5.0
same,"LD50 concentration based on insect-poison (O, mortality of the eggs)","[4]; Allethrin alone, I:P 100:0",< 3
"CCOC(=O)CC(SP(=S)(OC)OC)C(=O)OCC (stereo not drawn) [Malathion, S-[1,2-bis-(carbethoxy)-ethyl]-0,0-dimethyl-dithiophosphate, reference compound]","LD50 concentration based on insect-poison (W, mortality of the spider-mites)",[1]; Malathion alone,< 4
same,LD50 concentration based on insect-poison,[2]; Malathion alone,5.1
same,LD50 concentration based on insect-poison,[3]; Malathion alone,5.1
"C#CCOCc1ccc2c(c1)OCO2 [A, 3,4-(methylenedioxy)-α-(2-propynyloxy)-toluene]","LD50 concentration (W, mortality of the spider-mites; refers to the propynyl benzyl ether itself)",[1]; Sevin group,< 2
same,LD50 concentration (refers to the propynyl benzyl ether itself),[2]; [5],> 3.5
same,LD50 concentration (refers to the propynyl benzyl ether itself),[2]; [6],> 3.5
same,LD50 concentration (refers to the propynyl benzyl ether itself),[2]; [7],3.5
same,LD50 concentration (refers to the propynyl benzyl ether itself),[3]; Allethrin group,3.0
same,LD50 concentration (refers to the propynyl benzyl ether itself),[3]; Methoxychlor group,3.0
"C#CCOCc1ccc(OC)c(OC)c1 [B, 3,4-dimethoxy-α-(2-propynyloxy)-toluene]","LD50 concentration (W, mortality of the spider-mites; refers to the propynyl benzyl ether itself)",[1]; Allethrin group,3.0
same,"LD50 concentration (W, mortality of the spider-mites; refers to the propynyl benzyl ether itself)",[1]; Malathion group,3.0
same,"LD50 concentration (W, mortality of the spider-mites; refers to the propynyl benzyl ether itself)",[1]; Methoxychlor group,3.0
same,"LD50 concentration (W, mortality of the spider-mites; refers to the propynyl benzyl ether itself)",[1]; Sevin group,3.0
same,LD50 concentration (refers to the propynyl benzyl ether itself),"[2]; Allethrin group, I:P printed 0:10, ether alone",3.3
same,LD50 concentration (refers to the propynyl benzyl ether itself),[2]; [5],3.3
same,LD50 concentration (refers to the propynyl benzyl ether itself),[2]; [6],3.3
same,LD50 concentration (refers to the propynyl benzyl ether itself),[2]; [7],3.5
same,LD50 concentration (refers to the propynyl benzyl ether itself),[3]; Allethrin group,3.0
same,LD50 concentration (refers to the propynyl benzyl ether itself),[3]; Malathion group,3.3
same,LD50 concentration (refers to the propynyl benzyl ether itself),[3]; Methoxychlor group,3.3
same,"LD50 concentration (O, mortality of the eggs; refers to the propynyl benzyl ether itself)",[4]; Allethrin group,2.7
same,"LD50 concentration (O, mortality of the eggs; refers to the propynyl benzyl ether itself)",[4]; Methoxychlor group,2.7
same,"LD50 concentration (O, mortality of the eggs; refers to the propynyl benzyl ether itself)",[4]; Sevin group,2.7
